Results on 22 molecules are retold here after patent US8431593B2, “Heteroaryl amide derivatives” (H. Lundbeck A/S, priority 2006, dated 2013).

This experiment deals with T1, P2X7 receptor (Homo sapiens, UniProt Q99572).
T1 construct: host or cells: SH-SY5Y
T1 sequence (Q99572 1-595): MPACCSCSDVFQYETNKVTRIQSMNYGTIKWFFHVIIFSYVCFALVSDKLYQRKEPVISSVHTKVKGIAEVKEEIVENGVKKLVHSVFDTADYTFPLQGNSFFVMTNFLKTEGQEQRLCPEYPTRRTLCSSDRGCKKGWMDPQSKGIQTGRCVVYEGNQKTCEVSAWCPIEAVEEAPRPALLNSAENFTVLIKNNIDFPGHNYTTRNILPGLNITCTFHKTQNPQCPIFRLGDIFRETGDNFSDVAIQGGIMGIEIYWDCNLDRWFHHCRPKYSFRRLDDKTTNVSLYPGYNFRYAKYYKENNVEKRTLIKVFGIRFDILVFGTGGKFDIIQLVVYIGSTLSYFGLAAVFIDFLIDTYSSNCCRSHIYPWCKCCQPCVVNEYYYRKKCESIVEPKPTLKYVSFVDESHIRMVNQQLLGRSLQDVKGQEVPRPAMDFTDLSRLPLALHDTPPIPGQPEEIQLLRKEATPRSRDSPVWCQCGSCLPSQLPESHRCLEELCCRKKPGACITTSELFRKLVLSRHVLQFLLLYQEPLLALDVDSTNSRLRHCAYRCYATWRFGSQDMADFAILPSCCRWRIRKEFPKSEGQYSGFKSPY
Kind of experiment: P2X7 calcium mobilization assay, high throughput, antagonist activity (Example 4A). Type of experiment: cell-based. The conditions noted are these: 50% decrease in the fluorescence response of cells exposed to 80 μM of 2′(3′)-O-(4-benzoyl-benzoyl)adenosine 5′-triphosphate; determined as in Example 4A; read-out: IC50. The method, boiled down: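 Cells plated at 100,000/well the day before were dye-loaded for 1 h, then incubated 1 h at room temperature with test compound before agonist-triggered calcium mobilization was read on FLIPR Tetra. Maximum RFU was corrected by subtracting the no-agonist control and related to the agonist-control response.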
In general terms: Calcium assays in cells follow changes in intracellular calcium, usually with a dye or a luminescent sensor.

As usually defined, the IC50 is the concentration that gives 50% inhibition.

With `CCCC(CNC(=O)c1cccc2nc(CC(=O)N[C@@H]3CCCN(C(=O)OC(C)(C)C)C3)cn12)c1ccc(Cl)cc1` (stereo partly drawn) [Compound 924, tert-butyl (3R)-3-{[(5-{[2-(4-chlorophenyl)pentyl]carbamoyl}imidazo [1,2-a]pyridin-2-yl)acetyl]amino} piperidine-1-carboxylate], the IC50 is below 2000 nM.
The same measure for `CCCC(CNC(=O)c1cccc2nc(CC(=O)N[C@@H]3CCCNC3)cn12)c1ccc(Cl)cc1` (stereo partly drawn) [Compound 925, N-[2-(4-chlorophenyl)pentyl]-2-{2-oxo-2-[(3R)-piperidin-3-ylamino]ethyl} imidazo [1,2-a]pyridine-5-carboxamide]: below 2000 nM; for `O=C(Cc1cn2c(C(=O)NCC3(c4ccc(Cl)cc4)CCOCC3)cccc2n1)N[C@@H]1CCCNC1` [Compound 926, N-{[4-(4-chlorophenyl)tetrahydro-2H-pyran-4-yl]methyl}-2-{2-oxo-2-[(3R)-piperidin-3-ylamino]ethyl}imidazo [1,2-a]pyridine-5-carboxamide]: below 2000 nM; for `CC(C)CC(CNC(=O)c1cccc2nc(CC(=O)N3CCC[C@@H](NC(=O)OC(C)(C)C)C3)cn12)c1ccc(Cl)cc1` (stereo partly drawn) [Compound 928, tert-butyl {(3R)-1-[(5-{[2-(4-chlorophenyl)-4-methylpentyl]carbamoyl}imidazo[1,2-a]pyridin-2-yl)acetyl]piperidin-3-yl}carbamate]: below 2000 nM.
Take `CCCC(CNC(=O)c1cccc2nc(CC(=O)N3CCC[C@@H](N)C3)cn12)c1ccc(Cl)cc1` (stereo partly drawn) [Compound 929, 2-{2-[(3R)-3-aminopiperidin-1-yl]-2-oxoethyl}-N-[2-(4-chlorophenyl)pentyl] imidazo[1,2-a] pyridine-5-carboxamide]: the IC50 was below 2000 nM.
The same measure for `CCOC(=O)C(Cc1ccccn1)c1cn2c(C(=O)NCC(CC(C)C)c3ccc(Cl)cc3)cccc2n1` (stereo not shown) [Compound 930, ethyl 2-(5-{[2-(4-chlorophenyl)-4-methylpentyl]carbamoyl}imidazo[1,2-a]pyridin-2-yl)-3-pyridin-2-ylpropanoate]: below 2000 nM; for `CCOC(=O)C(Cc1ccccc1)c1cn2c(C(=O)NCC(CC(C)C)c3ccc(Cl)cc3)cccc2n1` (stereo not shown) [Compound 931, ethyl 2-(5-{[2-(4-chlorophenyl)-4-methylpentyl]carbamoyl}imidazo[1,2-a]pyridin-2-yl)-3-phenylpropanoate]: below 2000 nM.
Consider `CCOC(=O)C(Cc1ccc(Cl)cc1)c1cn2c(C(=O)NCC(CC(C)C)c3ccc(Cl)cc3)cccc2n1` (stereo not shown) [Compound 932, ethyl 3-(4-chlorophenyl)-2-(5-{[2-(4-chlorophenyl)-4-methylpentyl]carbamoyl}imidazo [1,2-a]pyridin-2-yl)propanoate], for which the IC50 is below 2000 nM.
The same measure for `CCOC(=O)C(Cc1ccccc1)c1cn2c(C(=O)NCC3(c4ccc(Cl)cc4)CCCCC3)cccc2n1` (stereo not shown) [Compound 933, ethyl 2-[5-({[1-(4-chlorophenyl)cyclohexyl]methyl}carbamoyl)imidazo[1,2-a]pyridin-2-yl]-3-phenylpropanoate]: below 2000 nM.
On to `CCOC(=O)C(Cc1ccc(Cl)cc1)c1cn2c(C(=O)NCC3(c4ccc(Cl)cc4)CCCCC3)cccc2n1` (stereo not shown) [Compound 934, ethyl 3-(4-chlorophenyl)-2-[5-({[1-(4-chlorophenyl)cyclohexyl]methyl}carbamoyl)imidazo[1,2-a]pyridin-2-yl]propanoate], for which the IC50 is below 2000 nM.
The value for `O=C(NCC1(c2ccc(Cl)cc2)CCCCC1)c1cccc2nc(C(Cc3ccc(Cl)cc3)C(=O)O)cn12` (stereo not shown) [Compound 935, 3-(4-chlorophenyl)-2-[5-({[1-(4-chlorophenyl)cyclohexyl]methyl}carbamoyl)imidazo[1,2-a]pyridin-2-yl] propanoic acid] was below 2000 nM; that for `O=C(NCC1(c2ccc(Cl)cc2)CCCCC1)c1cccc2nc(C(Cc3ccccc3)C(=O)O)cn12` (stereo not shown) [Compound 936, 2-[5-({[1-(4-chlorophenyl)cyclohexyl]methyl}carbamoyl)imidazo[1,2-a]pyridin-2-yl]-3-phenylpropanoic acid] was below 2000 nM.
Regarding `O=C(NCC1(c2ccc(Cl)cc2)CCCCC1)c1cccc2nc(C(Cc3ccccn3)C(=O)O)cn12` (stereo not shown) [Compound 937, 2-[5-({[1-(4-chlorophenyl)cyclohexyl]methyl}carbamoyl)imidazo[1,2-a]pyridin-2-yl]-3-pyridin-2-ylpropanoic acid], the IC50 was below 2000 nM.
The same measure for `CC(C)CC(CNC(=O)c1cccc2nc(C(Cc3ccccn3)C(=O)O)cn12)c1ccc(Cl)cc1` (stereo not shown) [Compound 938, 2-(5-{[2-(4-chlorophenyl)-4-methylpentyl]carbamoyl}imidazo[1,2-a]pyridin-2-yl)-3-pyridin-2-ylpropanoic acid]: below 2000 nM; for `CC(C)CC(CNC(=O)c1cccc2nc(C(Cc3ccccc3)C(=O)O)cn12)c1ccc(Cl)cc1` (stereo not shown) [Compound 939, 2-(5-{[2-(4-chlorophenyl)-4-methylpentyl]carbamoyl}imidazo[1,2-a]pyridin-2-yl)-3-phenylpropanoic acid]: below 2000 nM.
The value for `CC(C)CC(CNC(=O)c1cccc2nc(C(Cc3ccc(Cl)cc3)C(=O)O)cn12)c1ccc(Cl)cc1` (stereo not shown) [Compound 940, 3-(4-chlorophenyl)-2-(5-{[2-(4-chlorophenyl)-4-methylpentyl]carbamoyl}imidazo[1,2-a]pyridin-2-yl) propanoic acid] was below 2000 nM.
In the case of `O=C(O)CCc1cn2c(C(=O)NCC3(c4ccc(C(F)(F)F)cc4)CCCCC3)cccc2n1` [Compound 941, 3-{5-[({1-[4-(trifluoromethyl)phenyl]cyclohexyl}methyl)carbamoyl]imidazo [1,2-a]pyridin-2-yl}propanoic acid], the IC50 is below 2000 nM.
Take `CC(C)CC(CNC(=O)c1cccc2nc(CN3CC[C@@H](O)C3)cn12)c1ccc(Cl)cc1` (stereo partly drawn) [Compound 942, N-[2-(4-chlorophenyl)-4-methylpentyl]-2-{[(3R)-3-hydroxypyrrolidin-1-yl]methyl} imidazo[1,2-a]pyridine-5-carboxamide]: the IC50 is below 2000 nM.
Consider `CC(C)CC(CNC(=O)c1cccc2nc(CN(C)CCO)cn12)c1ccc(Cl)cc1` (stereo not shown) [Compound 943, N-[2-(4-chlorophenyl)-4-methylpentyl]-2-{[(2-hydroxyethyl)(methyl)amino]methyl}imidazo [1,2-a]pyridine-5-carboxamide], for which the IC50 was below 2000 nM.
Take `CCOC(=O)C1(c2cn3c(C(=O)NCC45CC6CC(CC(C6)C4)C5)cccc3n2)CCOCC1` [Compound 944, ethyl 4-{5-[(adamantan-1-ylmethyl)carbamoyl]imidazo[1,2-a]pyridin-2-yl}tetrahydro-2H-pyran-4-carboxylate]: the IC50 was below 2000 nM.
On to `O=C(NCC12CC3CC(CC(C3)C1)C2)c1cccc2nc(C3(C(=O)O)CCOCC3)cn12` [Compound 945, 4-{5-[(adamantan-1-ylmethyl)carbamoyl]imidazo[1,2-a]pyridin-2-yl}tetrahydro-2H-pyran-4-carboxylic acid], for which the IC50 is below 2000 nM.
Consider `CC(C)CC(CNC(=O)c1cccc2nc(CC(=O)N3CCC[C@@H](N)C3)cn12)c1cccnc1` (stereo partly drawn) [Compound 946, 2-{2-[(3R)-3-aminopiperidin-1-yl]-2-oxoethyl}-N-(4-methyl-2-pyridin-3-ylpentyl) imidazo[1,2-a]pyridine-5-carboxamide], for which the IC50 was below 2000 nM.
